According to article PMC11610669, “A Spectroscopic Study on the Amyloid‐β Interaction with Clicked Peptide‐Porphyrin Conjugates: a Vision Toward the Detection of Aβ Peptides in Aqueous Solution” (Chembiochem, 2024):
“Also recorded” adds a separate entry of the source. Square brackets hold non-standard residues; d marks the D form. Peptide text beside a SMILES is read from it. Lys(N3) = [N-]=[N+]=NCCCC[C@H](N)C(=O)O

What was measured:
Aβ42 [1] = target: T1, Aβ42 (Homo sapiens, UniProt P05067); experiment: Grating-Coupled Interferometry (GCI) binding to immobilized Aβ42; conditions: GCI fit quality parameter
Method: The Grating‐Coupled Interferometry (GCI) is a widely used analytical technique for characterizing intermolecular interactions. It allows quantitative measurements of both the affinity and the kinetics of the binding events. This high sensitivity label‐free method was exploited to measure the interactions of Aβ42 with Cu‐Ph‐Pep , Ph‐Pep , and Zn‐Ph‐Pep (Figure 5S). Control experiments with pristine MCPTPyP and the peptide GPGKLVFF ( Pep ) were carried out for comparison. The calculated association and dissociation kinetic constants (kon and koff, respectively) and the thermodynamic binding constant (KD), are summarized in Table 1. The obtained values indicate that all the conjugates show good affinities with Aβ42. It is also clear from Table 1 that the peptide moiety is fundamental for the molecular recognition of the Aβ42 peptide.[48] […] Nevertheless, it is important to emphasize that the interaction with Aβ42 is primarily mediated by the peptide rather than by the porphyrin macrocycle. We next investigated whether these peptide derivatives could be employed as molecular probes for the detection of Aβ42 aggregated species. A new set of CD experiments was then carried out with Aβ42 at 20 μM both in the absence and in the presence of the porphyrin‐peptide conjugates at 1 : 1 molar ratio in the UV (195–350) and Visible (350–500) regions. […] The signal rapidly evolved toward the typical β‐sheet profile (already within 24 h) with a single minimum at 216 nm, an x‐axis intercept at 202 nm and a maximum shift at a wavelength 195 nm.[49] […] For the sake of comparison, the CD spectra of the porphyrin‐peptide conjugates at 20 μM were also recorded in the same experimental conditions, both in the far‐UV and Visible regions (Figure 6S).
The experiments were performed on a Creoptix WAVE system (Creoptix). Borate buffer (100 mM sodium borate pH 9.0, 1 M NaCl) was used for chip conditioning. Aβ42 peptide (20 μg/ml in Na Acetate pH 4.5) was immobilized on 4PCH WAVE chips (quasiplanar polycarboxylate surface; Creoptix) according to the manufacturer instructions at a final density of 1910±40 pg/mm^2. Single‐cycle sequential injections of dilution series for each Porphyrin‐Peptide conjugates in running buffer (PBS, 0.005 % Tween 20, 1 % DMSO, 0.2 mg/ml BSA) were performed at 25 °C, using a flow rate of 100 μl/min. In details, for the conjugate Cu‐Ph‐Pep , 1 : 2 dilution series starting from 200 μM were injected for 10 s association time, 45 s dissociation time, followed by a dissociation time of 600 s for the last higher concentration injection. Finally, for the conjugates Ph‐Pep and Zn‐Ph‐Pep , 1 : 2 dilution series starting from 50 μM and 100 uM, respectively, were injected for 30 s association time, 45 s dissociation time, followed by a dissociation time of 600 s for the last higher concentration injection. Blank injections were used for double referencing and a DMSO calibration curve for bulk correction. Analysis and correction of the obtained data were performed using the Creoptix WAVE control software (correction applied: X and Y offset; DMSO calibration; double referencing). Mass transport binding models with bulk correction were used to fit all experiments. All the experiments have been performed at least in triplicate.
Figure 5S. Quantitative binding kinetics of Aβ42 vs a) MCPTPyP; b) Cu-Ph-Pep; c) Ph-Pep; d) Zn-Ph-Pep; and e) Pep measured by GCI. All curves were blank subtracted. Experiments were performed in triplicate. All the quality assessments (i.e., χ2 shown in Table 1 of the main text , parameter errors, and residual plots were acceptable; the sensorgrams had sufficient curvatures an d the kinetic constant k off were within the measurable range) were fulfilled. Descriptive Statistical Analysis was employed to calculate the mean of the obtained values of k on, koff and KD as a measure of central tendency and standard deviations of the former values were computed as a measure of dispersion.
Figure 6S. […]

[2] = UV-Vis self-aggregation of the conjugates; format: physicochemical; conditions: UV-Vis 300–650 nm, 5 μM, 10 mM phosphate buffer pH 7.4, room temperature, 0–120 h
Method: We first studied the effects of peptide conjugation on the porphyrin chromophore, by UV‐Vis spectra in the region between 300–650 nm. The spectra were recorded using a solution of 5 μM Porphyrin‐peptide conjugate in 10 mM phosphate buffer pH 7.4. The UV‐Vis profile of the porphyrin precursor MCPTPyP, recorded at the same concentration, is also shown for the sake of comparison (Figure 1).
(§1) Peptide conjugation influences the spectral features of the porphyrin chromophore as evidenced by the red shift in the absorption maximum in the region of the Soret band region. The Q bands are also affected, particularly in the Cu‐Ph‐Pep and Zn‐Ph‐Pep compounds (Figure 1). In this case the presence of a metal ion within the porphyrin's core might contribute to the observed spectral profile of these compounds. […] The fluorescence spectra of the investigated systems were also acquired in view of the interaction of the studied conjugates with cells (see below biological section).[41] The fluorescence spectra were recorded with the photoexcitation at 425±5 nm, in 10 mM phosphate buffer pH 7.4 and 5 μM concentration. The emission spectrum of the porphyrin precursor MCPTPyP ( Ph ) was also obtained for the sake of comparison.
(§2) Spectra were recorded on a Jasco V‐670 Spectrophotometer at room temperature. All measurements were performed in the 300–650 nm wavelength region, in a 10 mM phosphate buffer solution at pH 7.4 using a 1 cm path length quartz cell. The spectra of all the peptide‐porphyrin conjugates, either in the absence or in the presence of equimolar Aβ42, were acquired at 5 μM. In some cases, the same sample solution was used to run the CD spectra. The final concentrations of Aβ42 and peptide conjugates were 5 μM (1 : 1 molar ratio).

[3] = CD control: β-sheet propensity of the conjugates alone; format: physicochemical; conditions: 10 mM phosphate buffer pH 7.4, room temperature, up to 120 h
Method: (§3) The UV‐Vis spectra of porphyrin‐peptide conjugates (5 μM) were recorded in the presence of an equimolar ration of Aβ42 monomers at 0, 24, 48 and 120 h (Figure 2S). […] Therefore, the interaction of the peptide‐porphyrin conjugates with Aβ was further studied using CD spectroscopy. The Aβ42 aggregation process was monitored either in the absence or in the presence of an equimolar amount of the conjugated peptides. A series of CD control experiments were preventively carried out to assess the propensity of the porphyrin‐peptide conjugates to adopt a β‐sheet conformation. The corresponding CD curves are shown in the supplementary material (Figure 3S). […] We then evaluated the ability of the porphyrin‐peptide conjugates to affect the Aβ42’s aggregation process. This was accomplished by running a series of CD experiments on the binary systems in the same experimental conditions as the control CD measurements. A 5 μM Aβ42 sample was used as a positive control of the aggregation process (Figure 3, panel a). In this case, the curve profiles indicate that at 0 h, Aβ42 is predominantly in the random coil conformation, as evidenced by the negative ellipticity around 200 nm. […] The typical dichroic profile characterized by a negative ellipticity at λ=222 nm and a positive band at λ=200 is indicative of this event (Figure 3, panel a).
Spectra were recorded on a J‐810 spectrometer (Jasco, Japan) under a constant flow of N2 at room temperature. The CD measurements were performed in the wavelength regions (190–260 nm, 195–350 nm and 350–500 nm) using a 1 cm path length quartz cell. All aggregation kinetics were monitored up to 120 hours. The CD spectra were recorded for Aβ42 (5 μM and 20 μM) monomer in the absence or in the presence of porphyrin‐peptide conjugates (5 μM and 20 μM for the 1 : 1 molar ratios). Monomerized samples of Aβ42 (5 μM and 20 μM) were solubilized in 50 μL of NaOH 20 mM (2,5 %) and after were diluted with 1950 μL of 10 mM phosphate buffer at pH 7.4 pure or containing the solubilized conjugates.

Aβ42 [4] = target: T1, Aβ42; experiment: UV-Vis of conjugates with equimolar Aβ42; format: biochemical; conditions: 5 μM conjugate, equimolar Aβ42, 10 mM phosphate buffer pH 7.4, 0, 24, 48 and 120 h
Method: as §3, §2

[5] = Porphyrin fluorescence in buffer; format: physicochemical; conditions: 5 μM, 10 mM phosphate buffer pH 7.4, excitation 425 nm; vs pristine MCPTPyP
Excerpt: as §1
Spectra were recorded on a Horiba Fluoro‐max‐4 spectrofluorometer from 440–800 nm in 1 nm steps, at an excitation wavelength λexc=425 nm, at room temperature. The final fluorescence spectra represent averages of at least three measurements. Bandwidths of 5 nm for both excitation and emission were used. The sample of the compound used to record absorption spectra were the same as those for the CD spectra.

full-length Aβ = conditions: ref [44], [45]; cited from earlier work
Excerpt: In the present work we employed UV‐Vis, CD spectroscopy and Bis‐Ans fluorescence to explore the molecular processes underlying the interactions occurring between Aβ and the porphyrin‐peptide conjugates.

T1 sequence (P05067 672-713 limits assumed): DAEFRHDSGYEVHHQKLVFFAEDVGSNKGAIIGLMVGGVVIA

Compound | χ^2 (average of the squared residuals, fitting confidence) (Aβ42 [1]) | self-aggregation [2] | propensity to adopt β-sheet conformation (conjugate alone) [3] | UV-Vis spectral change in presence of Aβ42 (Aβ42 [4]) | fluorescence emission intensity [5] | recognition of full-length Aβ (full-length Aβ)
CC(=O)NCC(=O)N[C@@H](CCCCN=[N+]=[N-])C(=O)N1CCC[C@H]1C(=O)NCC(=O)N[C@@H](CCCCN)C(=O)N[C@@H](CC(C)C)C(=O)N[C@H](C(=O)N[C@@H](Cc1ccccc1)C(=O)N[C@@H](Cc1ccccc1)C(N)=O)C(C)C [Pep] (Ac-G[Lys(N3)]PGKLVFF-NH2) | 0.79±0.08 |  |  |  |  | 
COC(=O)[C@H](Cc1cn(CCCC[C@H](NC(=O)CNC(C)=O)C(=O)N2CCC[C@H]2C(=O)NCC(=O)N[C@@H](CCCCN)C(=O)N[C@@H](CC(C)C)C(=O)N[C@H](C(=O)N[C@@H](Cc2ccccc2)C(=O)N[C@@H](Cc2ccccc2)C(N)=O)C(C)C)nn1)NC(=O)c1ccc(-c2c3nc(c(-c4cc[n+](C)cc4)c4ccc([nH]4)c(-c4cc[n+](C)cc4)c4nc(c(-c5cc[n+](C)cc5)c5ccc2[nH]5)C=C4)C=C3)cc1 [Ph‐Pep] | 0.71±0.04 | absence of significant self‐aggregation phenomena | can fairly adopt β‐sheet conformation over time | minor variations in the spectral profiles | somewhat decreased | 
KLVFF [well-known hydrophobic core Aβ16–20 (KLVFF)] |  |  |  |  |  | can recognize and co‐assemble with full‐length Aβ
COC(=O)[C@H](Cc1cn(CCCC[C@H](NC(=O)CNC(C)=O)C(=O)N2CCC[C@H]2C(=O)NCC(=O)N[C@@H](CCCCN)C(=O)N[C@@H](CC(C)C)C(=O)N[C@H](C(=O)N[C@@H](Cc2ccccc2)C(=O)N[C@@H](Cc2ccccc2)C(N)=O)C(C)C)nn1)NC(=O)c1ccc(-c2c3nc(c(-c4cc[n+](C)cc4)c4ccc([nH]4)c(-c4cc[n+](C)cc4)c4nc(c(-c5cc[n+](C)cc5)c5ccc2[nH]5)C=C4)C=C3)cc1 [Cu‐Ph‐Pep] | 0.76±0.07 | absence of significant self‐aggregation phenomena | can fairly adopt β‐sheet conformation over time | minor variations in the spectral profiles; also recorded: observable absorbance diminution | not fluorescent | 
